In patent US11236080B2, “Protein kinase inhibitors” (Princeton Drug Discovery Inc, priority 2016, dated 2022):

Tests used:
[1] = Metabolic stability in human liver microsomes; assay type: in vitro ADME; conditions: human liver microsomes 0.5 mg/mL, NADPH and UDPGA, 37° C., read-out: In vitro t1/2
Experimental: FIG. 1. Metabolic stability of compounds in human liver microsomal incubations. […] Concentrations at specified times were determined by LC-MS/MS.
The incubation reactions at various time points were quenched by adding 2× volumes of acetonitrile containing 100 nM reserpine. The quenched incubation samples were centrifuged at 4000 RPM for 10 min, and the supernatants injected for LC/MS/MS analysis. LC/MS/MS analysis was carried out on a AB Sciex 4000 Q Trap LC/MS/MS system coupled with Shimadzu Prominence UFLCXR 20 series (including a CBM-20A controller, two LC-20ADXR solvent delivery units, SIL-20AC HT autosampler, CTO-20A column oven, and a SPD-20A UV detector).

[2] = Lung tissue and plasma concentration ratios; assay type: in vivo, CD-1 mouse; conditions: mice, single oral dose 5 mg/kg, dosed together with dasatinib, all time points
Experimental: CD-1 mouse (approximate weight 30 g, N=3) were dosed by oral gavage at 10 mL/kg. Blood samples were collected into tubes containing EDTA as the anticoagulant at 1, 2, 4, 10 h post-dosing for Compound X, and predose, 1, 2, 3, 8, 10 and 24 h post-dosing for Compound XI. The plasma samples were prepared by centrifugation. Lung samples were also collected at each of the above time points. The lung samples were homogenated in 4× distilled water (v/w). The plasma samples and the homogenated lung tissue samples were mixed with 3× volumes of acetonitrile containing 100 nM reserpine as the internal standard, and centrifuged at 4000 RPM for 15 min. The supernatants were injected for LC/MS analysis which were carried out on a AB Sciex 4000 Q Trap LC/MS/MS system coupled with Shimadzu Prominence UFLCXR 20 series (including a CBM-20A controller, two LC-20ADXR solvent delivery units, SIL-20AC HT autosampler, CTO-20A column oven, and a SPD-20A UV detector). The samples were separated on a Phenomenex Columbus column (C18, 4 μm, 50×2 mm) eluted with two solvent systems: 2 mM ammonium acetate in water containing 0.1% formic acid (A) and methanol (B) at a linear gradient starting at 25%. Electrospray ionization in positive mode was used to acquire LC/MS/MS data.

Row | half-life at 1 μM [1] | ratio of lung tissue concentration to plasma concentration, compared to dasatinib [2] | Compound
1 | 4.68 h |  | [2H]c1cc(C)c(NC(=O)c2cnc(Nc3cc(N4CCCCC4)nc(C)n3)s2)c(Cl)c1 [Compound I, N-(2-chloro-4-deuterio-6-methyl-phenyl)-2-[[2-methyl-6-(1-piperidyl)pyrimidin-4-yl]amino]thiazole-5-carboxamide]
2 |  | significantly lower ratios | Cc1nc(Nc2ncc(C(=O)Nc3c(C)cccc3Cl)s2)cc(N2CC[C@H](O)C2)n1 [Compound X, N-(2-chloro-6-methylphenyl)-2-[[2-methyl-6-((S)-3-hydroxypyrrolidin-1-yl)pyrimidin-4-yl]amino]thiazole-5-carboxamide]
3 |  | significantly lower ratios | Cc1nc(Nc2ncc(C(=O)Nc3c(C)cccc3Cl)s2)cc(N2CC[C@@H](O)C2)n1 [Compound XI, N-(2-chloro-6-methylphenyl)-2-[[2-methyl-6-((R)-3-hydroxypyrrolidin-1-yl)pyrimidin-4-yl]amino]thiazole-5-carboxamide]
